Experimental data from patent publication EP4671239A1, “ARYL SUBSTITUENT-CONTAINING DEGRADATION AGENT FOR CDK12/13, PREPARATION METHOD THEREFOR, AND PHARMACEUTICAL COMPOSITION AND USE THEREOF” (Shanghai Institute of Organic Chemistry, Chinese Academy of …, priority 2023, dated 2024).
Read-outs that look alike come from different tables or passages of the source.

What was measured:
CDK12 and CDK13 proteins [1] = experiment: Degradation activity on CDK12/13 in 22RV1 cells (Western Blot); assay type: cell-based; conditions: 22RV1 cells
Method: Experimental methods: The cell line, 22RV1 cell line was purchased from the American Type Culture Collection (ATCC). Conventional Western Blot was used for detection as follows: 22RV1 cells were seeded in a certain number in a 12-well plate, and cultured overnight in an incubator in an adherent manner. […] The cells were lysed with a lysis buffer, and samples were collected. Then, an appropriate amount of the samples was taken for SDS-PAGE electrophoresis. After electrophoresis, the proteins were transferred to nitrocellulose membranes using a semi-dry electro-transfer system. The nitrocellulose membrane was placed in a blocking solution (5% skim milk powder diluted in TBS containing 0.1% Tween 20) and blocked at room temperature for 2 h. The membranes were then placed in a primary antibody solution (1: 1000 diluted in TBS containing 0.1% Tween 20), respectively, and incubated at 4°C overnight. The cells were washed three times with TBS containing 0.1% Tween 20, each time for 15 min. The membrane was placed in a secondary antibody solution (horseradish peroxidase-labeled goat anti-rabbit IgG, diluted at 1:1000 in TBS containing 0.1% Tween 20) and reacted at room temperature for 1 h. After washing the membrane three times as above, the membrane was developed with ECL plus reagent and photographed using Amersham Imager 600 system.

[2] = tested on: phosphorylation of serine at position 2 (phoSer2) of the C-terminal domain of RNA polymeraseII (RNA Pol II); experiment: Phosphorylation of Ser2 of the RNA Pol II C-terminal domain in 22RV1 cells (Western Blot); assay type: cell-based; conditions: different concentrations (FIG. 4B)
Method: Experimental methods: The cell line, 22RV1 cell line was purchased from the American Type Culture Collection (ATCC). Conventional Western Blot was used for detection as follows: 22RV1 cells were seeded in a certain number in a 12-well plate, and cultured overnight in an incubator in an adherent manner. Then, a certain concentration of compounds was added to act for 6 hours. The cells were lysed with a lysis buffer, and samples were collected. Then, an appropriate amount of the samples was taken for SDS-PAGE electrophoresis. After electrophoresis, the proteins were transferred to nitrocellulose membranes using a semi-dry electro-transfer system. The nitrocellulose membrane was placed in a blocking solution (5% skim milk powder diluted in TBS containing 0.1% Tween 20) and blocked at room temperature for 2 h. The membranes were then placed in a primary antibody solution (1: 1000 diluted in TBS containing 0.1% Tween 20), respectively, and incubated at 4°C overnight. The cells were washed three times with TBS containing 0.1% Tween 20, each time for 15 min. The membrane was placed in a secondary antibody solution (horseradish peroxidase-labeled goat anti-rabbit IgG, diluted at 1:1000 in TBS containing 0.1% Tween 20) and reacted at room temperature for 1 h. […]

[3] = Pharmacokinetics and bioavailability test in rats (Example 60); assay type: in vivo; conditions: SD rats
Method: (§1) Pharmacokinetics and bioavailability tests in rats. SD rats were given a single oral (10 mg/kg), intravenous (2.5 mg/kg) and intraperitoneal (10 mg/kg) dose, followed by animal blood sample collection at appropriate time points. Heparin was added for anticoagulation, and the samples were centrifuged at 8000 rpm for 6 min. The supernatant was collected and stored at -20°C for HPLC-MS analysis. The blood samples underwent protein precipitation with acetonitrile at 12 000 rpm * 10 min, and the supernatant was used for HPCL-MS analysis. The data underwent parameter fitting with DAS2.0, to obtain compartmental model and non-compartmental model parameters, respectively. The oral bioavailability of the compounds was calculated based on the area under the plasma concentration-time curve (AUC) data. […] Table 2. Pharmacokinetic experimental results of compounds YJZ9069 and YJZ1102

[4] = Pharmacokinetics and bioavailability test in rats (Example 57); assay type: in vivo; conditions: SD rats; for AUC(0-inf) / Tmax / MRT last / MRT inf: rat, plasma; for MRT last: read-out: MRT(0-t); for MRT inf: read-out: MRT(0-∞)
Method: as §1, with “Table 1.” for “Table 2.”, “of compound zlc-4-93” for “of compounds YJZ9069 and YJZ1102”

CDK12 and CDK13 proteins [5] = experiment: Degradation activity on CDK12/13 in MDA-MB-231 cells (Western Blot); assay type: cell-based; conditions: for degradation of CDK12 and CDK13 protein levels in cells: 0.1µM or 0.3µM, 15 h, WB (FIG. 1); for degradation of CDK12 and CDK13 proteins: 1 µM, 15 hours
Method: (§2) Experimental methods: The cell line MDA-MB-231 was purchased from the American Type Culture Collection (ATCC). Conventional Western Blot was used for detection, as follows: MDA-MB-231 cells were seeded at a density of 2 x 10^5/mL in a 12-well plate, with 1 mL per well, and cultured overnight in an incubator in an adherent manner. Then, a certain concentration of compounds was added to act for 15 h. The cells were lysed with a lysis buffer, and protein samples were collected. An appropriate amount of the sample was taken for SDS-PAGE electrophoresis. After electrophoresis, the protein was transferred to a polyvinylidene fluoride (PVDF) membrane using a wet electro-transfer system. The PVDF membrane after electro-transfer was cut into several required strips, which were then placed in a blocking solution (5% skim milk powder diluted in TBS containing 0.1% Tween 20) and blocked at room temperature for 1.5 h. A primary antibody solution was prepared by diluting a primary antibody against the corresponding target protein in TBS containing 0.1% Tween 20 according to the dilution requirements of different antibodies, such as 1:1000 (CST), 1:3000 (Proteintech, Bethyl), and 1:200 (Santacruz). The blocked membrane was placed in the corresponding primary antibody solution and incubated at 4°C for 12-14 h. Then, the cells were washed three times with TBS containing 0.1% Tween 20, each time for 5 min. After washing, the membrane was placed in a secondary antibody solution (horseradish peroxidase-labeled goat anti-rabbit IgG, diluted at 1:2000 in TBS containing 0.1% Tween 20) and reacted at room temperature for 2 h. After washing the membrane three times as above, the membrane was developed with StarSignal plus reagent (GenStar®) and Omni-ECL reagent (Yazyme®), and photographed with Amersham Imager 800 system.

Cyclin K = experiment: Degradation of partner protein Cyclin K in MDA-MB-231 cells (Western Blot); assay type: cell-based; conditions: for time dependence of degradation of Cyclin K: WB (FIG. 2); for degradation of Cyclin K protein: after 15 hours
Method: as §2

CDK12 and CDK13 proteins [6] = experiment: Degradation activity on CDK12/13 in MDA-MB-231 cells (Western Blot); assay type: cell-based; conditions: WB (FIG. 2A)
[7] = tested on: triple negative breast cancer cells MDA-MB-231; experiment: Proliferation-inhibiting activity on MDA-MB-231 cells (Cell Counting Kit-8); assay type: cell-based; conditions: Homo sapiens, 120 h; MDA-MB-231 cell line, 5 days, cck-8 (FIG. 3)
Method: The cell proliferation-inhibiting activity of the compounds was determined using Cell Counting Kit-8 Cell Viability Assay (Selleck.cn). The cells were seeded into a 384-well plate (CORNING® PS 3701) containing the corresponding culture medium and incubated in an incubator at 37°C with 5% CO2. After overnight incubation, a high-concentration stock solution of each compound to be tested was prepared; the compound was added to the 384-well plate according to a concentration gradient using an Echo® 650 Liquid Handler (LABCYTE®). After administration, the cell plate was placed in an incubator at 37°C with 5% CO2 and incubated for 5 days. Then, 5 µL of cck-8 reagent was added to each well of the 384-well plate using MULTIDROP® (Thermo Scientific™), and the plate was returned to the incubator for incubation for 1.5-2 h. After incubation, the plate was removed and centrifuged to remove bubbles. The absorbance of each well at 450 nm and 650 nm was obtained using EnVision® (PerkinElmer®). GraphPad Prism software (GraphPad Software Inc.) was used to process and analyze the data.

Structure (SMILES): O=C1CCC(N2C(=O)c3cccc(OCC(=O)N4CCN(c5ccc(N(C(=O)NCc6ccccc6)[C@H]6CC[C@H](Nc7ncc8ccccc8n7)CC6)cc5)CC4)c3C2=O)C(=O)N1 (stereo partly drawn) [YJZ9069]
- degradation of CDK12 and CDK13 proteins (CDK12 and CDK13 proteins [1]; 100 nM, 6 h (FIG. 5)): almost completely degrade
- degradation of CDK12 and CDK13 proteins (CDK12 and CDK13 proteins [1]; 0.5 µM, 15 hours): almost completely degraded
- degradation of CDK12 and CDK13 protein levels in cells (CDK12 and CDK13 proteins [1]; 500 nM, 6 hours, WB (FIG. 4)): effectively degrade
- dose dependence of degradation of CDK12 and CDK13 proteins (CDK12 and CDK13 proteins [1]; different concentrations, 6 h (FIG. 4B, FIG. 5)): dose-dependent manner
- phosphorylation of serine at position 2 (phoSer2) of RNA Pol II CTD [2]: inhibited in a dose-dependent manner
- F ([3]; PO 10 mg/kg, bioavailability calculated from AUC): 5.04%
- Cmax ([3]; rat, in vivo, IV 2.5 mg/kg): 3510 ng/mL
- Tmax ([3]; rat, in vivo, IV 2.5 mg/kg): 0.08 h
- clearance ([3]; rat, in vivo, IV 2.5 mg/kg): 14.1 mL/min/kg
- half-life ([3]; rat, in vivo, IV 2.5 mg/kg): 4.39 h
- Cmax ([3]; rat, in vivo, PO 10 mg/kg): 121 ng/mL
- Tmax ([3]; rat, in vivo, PO 10 mg/kg): 4 h

Structure (SMILES): N#Cc1ccc(N[C@H]2CC[C@H](N(C(=O)NCc3ccccc3)c3ccc(N4CCN(C5CCN(c6cc7c(cc6F)C(=O)N(C6CCC(=O)NC6=O)C7=O)CC5)CC4)cc3)CC2)nc1 (stereo partly drawn) [ZLC4-91]
- F ([4]; Oral 10 mg/kg, bioavailability calculated from AUC): 46.80%
- oral pharmacokinetic properties ([4]; summary in words of Table 1): excellent
- AUC(0-inf) ([4]; iv, i.v. 2.5 mg/kg): 6880 ng·h/mL
- Tmax ([4]; iv, i.v. 2.5 mg/kg): 0.08 h
- MRT last ([4]; iv, i.v. 2.5 mg/kg): 2.2 h
- MRT inf ([4]; iv, i.v. 2.5 mg/kg): 2.32 h
- AUC(0-inf) ([4]; Oral 10 mg/kg): 12800 ng·h/mL
- Tmax ([4]; Oral 10 mg/kg): 4.67 h
- MRT last ([4]; Oral 10 mg/kg): 6.09 h
- MRT inf ([4]; Oral 10 mg/kg): 6.21 h
- degradation of CDK12 and CDK13 protein levels in cells (CDK12 and CDK13 proteins [5]): effectively degrade
- degradation of CDK12 and CDK13 proteins (CDK12 and CDK13 proteins [5]): almost completely degraded
- time dependence of degradation of Cyclin K (Cyclin K): time-dependent degradation effect
- degradation of Cyclin K protein (Cyclin K): almost completely degraded
- time dependence of degradation of CDK12 and CDK13 proteins (CDK12 and CDK13 proteins [6]): time-dependent manner
- IC50 [7]: 622 nM

Structure (SMILES): N#Cc1ccc(N[C@H]2CC[C@H](N(C(=O)NCc3ccccc3)c3ccc(N4CCC(N5CCN(c6ccc7c(c6)C(=O)N(C6CCC(=O)NC6=O)C7=O)CC5)CC4)cc3)CC2)nc1 (stereo partly drawn) [ZLC5-11]
- degradation of CDK12 and CDK13 protein levels in cells (CDK12 and CDK13 proteins [5]): effectively degrade
- degradation of CDK12 and CDK13 proteins (CDK12 and CDK13 proteins [5]): almost completely degraded
- time dependence of degradation of Cyclin K (Cyclin K): time-dependent degradation effect
- degradation of Cyclin K protein (Cyclin K): almost completely degraded
- time dependence of degradation of CDK12 and CDK13 proteins (CDK12 and CDK13 proteins [6]): time-dependent manner
